Test results as given in patent publication US8119798B2, “P38 kinase inhibitors” (GlaxoSmithKline LLC, priority 2006, dated 2012).

test system: secretion of TNF-α from LPS-stimulated human monocytes; test: LPS-induced TNF-alpha production in human THP-1 cell line; format: cell-based; settings: Monocyte, read-out: EC50, inhibition of secretion of TNF-α from LPS-stimulated human monocytes
Experimental: THP-1 (human, monocytic) cell line was purchased from the American Type Culture Collection (ATCC, Cat. No.TIB 202). Cell line was passaged three times per week in RPMI 1640 (GIBCO), supplemented with 10% heat-inactivated fetal bovine serum (FBS; Omega Scientific, Tarzana, Calif.), 2 mM L-glutamine, 100 U/ml penicillin and 100 μg/ml streptomycin (Gibco/Invitrogen, Carlsbad, Calif.) in a humidified incubator with 95% air and 5% CO2 at 37° C.
For the assay THP-1 cells were harvested, counted and suspended at 1E6 cells/ml in culture medium. 200 μl of cell suspension was added to each well at 96 well plates to provide density of 2×10^5 cells per well. Serial dilutions of P38 compounds were prepared at final concentrations in culture medium from a 10 mM stock solution, and assayed in triplicate. Vehicle was prepared by adjusting culture medium to 0.1% v/v DMSO which corresponds to the concentration of DMSO in the wells with test compounds.
Cells were incubated in presence of the P38 inhibitor for 30 min. After that cells were stimulated with LPS (E. coli 026:B6, 1 μg/ml) for 4 hr at 37° C. in a 5% CO2-incubator. Reaction was stopped by placing samples on ice and centrifuging for 10 min at 1500×g at 4° C. Cell supernatants were harvested and concentration of TNF—was determined by ELISA (BD Pharmingen, San Diego, Calif., Cat. No. 555212), following the manufacturer's instruction. Absorbance read and analyzed at 450 nm on a spectrophotometric ELISA plate reader (Labsystems Multiskan MCC/340). Replicate readings were averaged and the results are expressed as a percent of OD signal from control.

EC50 [nM]	SMILES
33	CONC(=O)c1ccc(C)c(Nc2nc(NCC3CCCC(CN)C3)nc(N[C@H](C)C(C)(C)C)n2)c1 (stereo partly shown) [Compound 9]
22	CONC(=O)c1ccc(C)c(Nc2nc(NCC3CCCC(CN)C3)nc(NC3CCCCC3C)n2)c1 (stereo not shown) [Compound 10]
11	CONC(=O)c1ccc(C)c(Nc2nc(NCC3CCCC(CN)C3)nc(NC3CCCCC3)n2)c1 (stereo not shown) [Compound 11]
122	CONC(=O)c1ccc(C)c(Nc2nc(NCc3cccc(C)c3)nc(N[C@H](C)C(C)(C)C)n2)c1 [Compound 12]
